Laboratory results reported in patent US12280052B2, “Compositions and methods for the treatment of adenomyosis and rectovaginal endometriosis” (ObsEva S.A., priority 2018, dated 2025).

How the values were obtained:
[1] = target: T1, human GnRH receptor (Homo sapiens, UniProt P30968); test: affinity for human GnRH receptor; type: binding; details: kind of constant not stated
T1 sequence (P30968 1-328): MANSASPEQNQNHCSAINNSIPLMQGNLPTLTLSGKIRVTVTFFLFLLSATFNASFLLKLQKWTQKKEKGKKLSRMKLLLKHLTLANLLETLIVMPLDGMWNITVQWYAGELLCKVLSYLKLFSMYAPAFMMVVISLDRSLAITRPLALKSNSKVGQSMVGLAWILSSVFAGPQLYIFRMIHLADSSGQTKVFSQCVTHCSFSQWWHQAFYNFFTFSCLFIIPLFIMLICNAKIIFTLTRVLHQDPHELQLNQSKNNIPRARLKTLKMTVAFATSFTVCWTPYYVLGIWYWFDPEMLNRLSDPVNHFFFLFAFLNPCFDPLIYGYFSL

[2] = tested on: human female patients suffering from adenomyosis; test: open-label Phase II clinical trial of compound (VI) in adenomyosis, representative patient; type: in vivo; details: for mB&B score: composite score 0-15, baseline 6.0 (Severe); for mB&B score / Change from baseline in EHP-30 score for control and powerlessness / Change from baseline in EHP-30 score for emotional well-being / Change from baseline in EHP-30 score for pain / Change from baseline in EHP-30 score for self-image / Change from baseline in EHP-30 score for social support / Change from baseline in global pelvic pain by NRS / Change from baseline in mB&B score / Change from baseline in uterine volume by MRI / Change from baseline in uterine volume by TVUS / Uterus height by TVUS / Uterus depth by TVUS / Uterus length by TVUS / mB&B score, severity class / EHP-30 Score: Pain (Questions 1-11 of EHP-30) / EHP-30 Score: Social Support (Questions 24-27 of EHP-30) / EHP-30 Score: Self-Image (Questions 28-30 of EHP-30) / EHP-30 Score: Emotional Well-being (Questions 18-23 of EHP-30) / EHP-30 Score: Control and Powerlessness (Questions 12-17 of EHP-30) / Global pelvic pain by numerical rating scale (NRS) / Patient Global Impression of Change since Baseline (PGIC) / Uterus volume by transvaginal ultrasound (TVUS) / Uterus volume by MRI: representative patient; for Uterus height by TVUS: baseline 5.6 cm; for Uterus depth by TVUS: baseline 6.5 cm; for Uterus length by TVUS: baseline 6.7 cm; for mB&B score, severity class: baseline Severe; for EHP-30 Score: Pain (Questions 1-11 of EHP-30): scale 0 (best) to 100 (worst health status), baseline 63.6; for EHP-30 Score: Social Support (Questions 24-27 of EHP-30) / EHP-30 Score: Self-Image (Questions 28-30 of EHP-30) / EHP-30 Score: Emotional Well-being (Questions 18-23 of EHP-30) / EHP-30 Score: Control and Powerlessness (Questions 12-17 of EHP-30): scale 0 (best) to 100 (worst); for EHP-30 Score: Social Support (Questions 24-27 of EHP-30): baseline 43.8; for EHP-30 Score: Self-Image (Questions 28-30 of EHP-30): baseline 50.0; for EHP-30 Score: Emotional Well-being (Questions 18-23 of EHP-30): baseline 66.7; for EHP-30 Score: Control and Powerlessness (Questions 12-17 of EHP-30): baseline 70.8; for Global pelvic pain by numerical rating scale (NRS): scale 0 (no pain) to 10 (worst pain imaginable), baseline 7; for Patient Global Impression of Change since Baseline (PGIC): scale 1 (Very much improved) to 7 (very much worse); for Uterus volume by transvaginal ultrasound (TVUS): volume = l × h × d × 0.523, baseline 128 cm^3; for Uterus volume by MRI: baseline 198
Source text: This example describes the results of an open-label, Phase II clinical trial examining the safety and efficacy of the GnRH antagonist, compound (VI) (3-[2-fluoro-5-(2,3-difluoro-6-methoxybenzyloxy)4-methoxyphenyl]-2,4-dioxo-1,2,3,4-tetrahydrothieno [3,4d]pyrimidine-5-carboxylic acid), for treating human female patients suffering from adenomyosis. The study began with a 4-week patient screening period, followed by two consecutive 12-week treatment periods. During the first 12-week treatment period, patients were administered compound (VI) in a single daily dose of 200 mg. During the second 12-week treatment period, patients were administered compound (VI) in a single daily dose of 100 mg. Patients then entered a post-treatment follow-up period during which the effects of compound (VI) were further assessed.
The total duration of this study (from the screening visit to the end-of-study visit) was 40 weeks per subject. The study began with a 4-week screening period evaluating the symptoms of uterine adenomyosis and assessing the volume of each patient's adenomyosis-affected uterus by way of MRI. During this period, the patients received no study drug.
At the start of menstruation, the patients were administered 200 mg of compound (VI), once daily, in the form of the corresponding choline salt. The administration continued over the course of a 12-weel treatment period, referred to as the “initiation phase,” so as to maximize the effect of the treatment. After the first 12-week treatment period, the therapeutic effect of the GnRH antagonist was maintained by administering 100 mg of compound (VI), once daily, over the course of a second 12-week treatment period. This second treatment period was referred to as the “maintenance phase.”
At the end of the maintenance phase (at week 24), the patients entered a 12-week follow-up period without any active treatment.
The primary efficacy endpoint of this study was a change, from baseline to week 24, in volume of the adenomyosis-affected uterus, as measured by MRI. Secondary endpoints under investigation in this study were as follows: • Change from baseline to weeks 12 and 36 in volume of the uterus with adenomyosis measured by MRI • Change from baseline to weeks 12, 24 and 36 in volume of the uterus with adenomyosis measured by TVUS • Change from baseline to weeks 12, 24 and 36 in the largest thickness of the anterior and posterior part of the uterus myometrium (sagittal assessment) • Change from baseline to weeks 12, 24 and 36 in the largest diameter of the junctional zone of the uterine adenomyosis measured by MRI • Presence of blood spots on the MRI images • Change from baseline to weeks 12, 24 and 36 in uterus volume assessed at vaginal examination • Change from baseline to weeks 12, 24 and 36 in uterine tenderness assessed at vaginal examination • Change from baseline to weeks 12, 24 and 36 in dysmenorrhea, pelvic pain and dyspareunia according to the mB&B scale • Change from baseline to weeks 4, 8, 12, 16, 20, 24 and 36 for global pelvic pain assessed over the preceding 4-week period using a Numerical Rating Scale (NRS) with a monthly recall • Change from baseline to weeks 4, 8, 12, 16, 20, 24, 28, 32 and 36 in the mean monthly dyspareunia score defined as the mean of available daily dyspareunia scores over the preceding 4-week period assessed on the Verbal Rating Scale (VRS) dyspareunia scale and on a NRS • Change from baseline to weeks 4, 8, 12, 16, 20 and 24 fin the mean monthly dyschezia score defined as the mean of weekly dyschezia scores over the preceding 4-week period using a NRS • No uterine bleeding (or spotting only), during the 4-week period preceding weeks 4, 8, 12, 16, 20 and 24 using a simplified bleeding scale • Time to amenorrhea • Change from baseline to weeks 12, 24 and 36 in the Endometriosis Health Profile questionnaire (EHP-30) • Patient Global Impression of Change (PGIC) score at weeks 12, 24 and 36 Data Analysis and Statistics […]

[3] = week 24 (100 mg once daily after 12 weeks of 200 mg)

Structure (SMILES): COc1cc(F)c(-n2c(=O)[nH]c3csc(C(=O)O)c3c2=O)cc1OCc1c(OC)ccc(F)c1F [Compound (VI), 3-[2-fluoro-5-(2,3-difluoro-6-methoxybenzyloxy)4-methoxyphenyl]-2,4-dioxo-1,2,3,4-tetrahydrothieno [3,4d]pyrimidine-5-carboxylic acid]
- affinity for human GnRH receptor [1]: 27.4 nM
- uterine volume, conclusion in words ([2]; 24 weeks of treatment, 200 mg then 100 mg once daily): sustained reduction in uterine volume
- adenomyosis-associated pain, conclusion in words ([2]; 24 weeks of treatment, 200 mg then 100 mg once daily, various metrics): substantial reduction in adenomyosis-associated pain
- mB&B score ([2]; week 12 (200 mg once daily)): 2.0
- Change from baseline in EHP-30 score for control and powerlessness ([2]; week 12 (200 mg once daily)): −70.8
- Change from baseline in EHP-30 score for emotional well-being ([2]; week 12 (200 mg once daily)): −66.7
- Change from baseline in EHP-30 score for pain ([2]; week 12 (200 mg once daily)): −63.6
- Change from baseline in EHP-30 score for self-image ([2]; week 12 (200 mg once daily)): −50.0
- Change from baseline in EHP-30 score for social support ([2]; week 12 (200 mg once daily)): −43.8
- Change from baseline in global pelvic pain by NRS ([2]; week 12 (200 mg once daily)): −7
- Change from baseline in mB&B score ([2]; week 12 (200 mg once daily)): −4
- Change from baseline in uterine volume by MRI ([2]; week 12 (200 mg once daily)): −114 cm^3
- Change from baseline in uterine volume by TVUS ([2]; week 12 (200 mg once daily)): −79 cm^3
- Uterus height by TVUS ([2]; week 12 (200 mg once daily)): 4.1 cm
- Uterus depth by TVUS ([2]; week 12 (200 mg once daily)): 5.0 cm
- Uterus length by TVUS ([2]; week 12 (200 mg once daily)): 4.5 cm
- mB&B score, severity class ([2]; week 12 (200 mg once daily)): Mild (Mild (1-2))
- EHP-30 Score: Pain (Questions 1-11 of EHP-30) ([2]; week 12 (200 mg once daily)): 0.0
- EHP-30 Score: Social Support (Questions 24-27 of EHP-30) ([2]; week 12 (200 mg once daily)): 0
- EHP-30 Score: Self-Image (Questions 28-30 of EHP-30) ([2]; week 12 (200 mg once daily)): 0
- EHP-30 Score: Emotional Well-being (Questions 18-23 of EHP-30) ([2]; week 12 (200 mg once daily)): 0
- EHP-30 Score: Control and Powerlessness (Questions 12-17 of EHP-30) ([2]; week 12 (200 mg once daily)): 0
- Global pelvic pain by numerical rating scale (NRS) ([2]; week 12 (200 mg once daily)): 0
- Patient Global Impression of Change since Baseline (PGIC) ([2]; week 12 (200 mg once daily)): 1—Very
- Uterus volume by transvaginal ultrasound (TVUS) ([2]; week 12 (200 mg once daily)): 48 cm^3
- Uterus volume by MRI ([2]; week 12 (end of initiation phase, 200 mg once daily as choline salt)): 84 cm^3
- mB&B score [2, 3]: 2.0
- Change from baseline in EHP-30 score for control and powerlessness [2, 3]: −70.8
- Change from baseline in EHP-30 score for emotional well-being [2, 3]: −66.7
- Change from baseline in EHP-30 score for pain [2, 3]: −56.8
- Change from baseline in EHP-30 score for self-image [2, 3]: −50.0
- Change from baseline in EHP-30 score for social support [2, 3]: −43.8
- Change from baseline in global pelvic pain by NRS [2, 3]: −6
- Change from baseline in mB&B score [2, 3]: −4
- Change from baseline in uterine volume by MRI [2, 3]: −123 cm^3
- Change from baseline in uterine volume by TVUS [2, 3]: −79 cm^3
- Uterus height by TVUS [2, 3]: 4.0 cm
- Uterus depth by TVUS [2, 3]: 5.0 cm
- Uterus length by TVUS [2, 3]: 4.6 cm
- mB&B score, severity class [2, 3]: Mild (Mild (1-2))
- EHP-30 Score: Pain (Questions 1-11 of EHP-30) [2, 3]: 6.8
- EHP-30 Score: Social Support (Questions 24-27 of EHP-30) [2, 3]: 0
- EHP-30 Score: Self-Image (Questions 28-30 of EHP-30) [2, 3]: 0
- EHP-30 Score: Emotional Well-being (Questions 18-23 of EHP-30) [2, 3]: 0
- EHP-30 Score: Control and Powerlessness (Questions 12-17 of EHP-30) [2, 3]: 0
- Global pelvic pain by numerical rating scale (NRS) [2, 3]: 1
- Patient Global Impression of Change since Baseline (PGIC) [2, 3]: 1—Very
- Uterus volume by transvaginal ultrasound (TVUS) [2, 3]: 48 cm^3
- Uterus volume by MRI ([2]; week 24 (end of maintenance phase, 100 mg once daily after 12 weeks of 200 mg)): 75 cm^3
